According to the supplement of paper PMC10307832:

How the values were obtained:
Experiment in all cases: relative viability (nuclei count vs DMSO), 5 days (fraction); higher = more cells survive
Salubrinal + Bortezomib = compound: O=C(/C=C/c1ccccc1)NC(NC(=S)Nc1cccc2cccnc12)C(Cl)(Cl)Cl [Salubrinal] + CC(C)C[C@H](NC(=O)[C@H](Cc1ccccc1)NC(=O)c1cnccn1)B(O)O [Bortezomib] (partner 0.002 µM)
How it was run: (§1)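 Values are medians from duplicate plates. Each reflects relative viability, defined as the nuclei count of treated wells over that of vehicle wells. Lung cancer cell lines in 1536-well plates were pin-tool dosed one day after seeding with one drug alone or with a fixed anchor-drug dose plus five library-drug doses (not always all listed) in √10 steps, then fixed, stained and imaged at 4× after 5 days.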

Salubrinal + Foretinib = compound: O=C(/C=C/c1ccccc1)NC(NC(=S)Nc1cccc2cccnc12)C(Cl)(Cl)Cl [Salubrinal] + COc1cc2c(Oc3ccc(NC(=O)C4(C(=O)Nc5ccc(F)cc5)CC4)cc3F)ccnc2cc1OCCCN1CCOCC1 [Foretinib] (partner 0.25 µM)
How it was run: as §1

Salubrinal + Linsitinib = compound: O=C(/C=C/c1ccccc1)NC(NC(=S)Nc1cccc2cccnc12)C(Cl)(Cl)Cl [Salubrinal] + C[C@]1(O)C[C@@H](c2nc(-c3ccc4ccc(-c5ccccc5)nc4c3)c3c(N)nccn32)C1 [Linsitinib] (partner 1 µM)
How it was run: as §1

[1] = compound: Cc1ccc2nc(NCCN)c3ncc(C)n3c2c1 + Cc1cc(Nc2cc(N3CCN(C)CC3)nc(Sc3ccc(NC(=O)C4CC4)cc3)n2)n[nH]1 [Tozasertib] (partner 0.1 µM)
How it was run: as §1

Row | Cell Line | relative viability (Salubrinal + Bortezomib; first compound 0.08 µM) | relative viability (Salubrinal + Bortezomib; first compound 0.253 µM) | relative viability (Salubrinal + Bortezomib; first compound 0.8 µM) | relative viability (Salubrinal + Bortezomib; first compound 2.53 µM) | relative viability (Salubrinal + Bortezomib; first compound 8 µM) | relative viability (Salubrinal + Foretinib; first compound 0.08 µM) | relative viability (Salubrinal + Foretinib; first compound 0.253 µM) | relative viability (Salubrinal + Foretinib; first compound 0.8 µM) | relative viability (Salubrinal + Foretinib; first compound 2.53 µM) | relative viability (Salubrinal + Foretinib; first compound 8 µM) | relative viability (Salubrinal + Linsitinib; first compound 0.08 µM) | relative viability (Salubrinal + Linsitinib; first compound 0.253 µM) | relative viability (Salubrinal + Linsitinib; first compound 0.8 µM) | relative viability (Salubrinal + Linsitinib; first compound 2.53 µM) | relative viability (Salubrinal + Linsitinib; first compound 8 µM) | relative viability ([1]; first compound 0.04 µM) | relative viability ([1]; first compound 0.1265 µM) | relative viability ([1]; first compound 0.4 µM) | relative viability ([1]; first compound 1.265 µM) | relative viability ([1]; first compound 4 µM)
1 | NCI-H1703 | 0.365 | 0.268 | 0.242 | 0.322 | 0.293 | 0.319 | 0.459 | 0.349 | 0.354 | 0.337 | 0.515 | 0.997 | 0.712 | 0.685 | 0.644 |  |  |  |  | 
2 | NCI-H1437 | 0.667 | 0.474 | 0.68 | 0.535 | 0.465 | 1.3 | 1.23 | 1.3 | 1.25 | 1.29 | 1.27 | 0.691 | 1.19 | 1.06 | 0.853 | 0.412 | 0.399 | 0.39 | 0.364 | 0.368
3 | SK-LU-1 | 1 | 1.07 | 1.63 | 1.21 | 0.941 | 0.947 | 0.898 | 0.97 | 0.817 | 0.775 | 1.26 | 1.19 | 1.37 | 1.02 | 1.16 | 0.378 | 0.373 | 0.392 | 0.339 | 0.308
4 | Calu-6 | 1.18 | 0.856 | 1.11 | 1.01 | 0.918 | 0.979 | 0.865 | 0.907 | 0.806 | 0.803 | 0.983 | 0.842 | 1.08 | 0.928 | 0.992 |  |  |  |  | 
5 | NCI-H1792 | 1.2 |  | 1.23 | 0.92 | 0.806 |  |  |  |  |  | 0.805 |  | 0.606 | 0.482 | 0.457 |  |  |  |  | 
6 | NCI-H2170 |  |  |  |  |  | 1.14 | 0.808 | 1.07 | 1.04 | 0.888 |  |  |  |  |  | 0.755 | 0.625 | 0.694 | 0.671 | 0.679
7 | NCI-H1650 | 0.217 | 0.227 | 0.256 | 0.173 | 0.243 | 1.26 | 1.02 | 1.08 | 1.14 | 0.894 |  |  |  |  |  | 0.434 | 0.431 | 0.513 | 0.439 | 0.296
8 | EBC-1 | 0.719 | 0.544 | 0.504 | 0.501 | 0.466 | 0.112 | 0.0951 | 0.12 | 0.102 | 0.0993 | 0.767 | 0.844 | 1.03 | 0.873 | 0.897 |  |  |  |  | 
9 | NCI-H2342 |  |  |  |  |  | 1.1 | 1.04 | 1.1 | 1.09 | 0.927 |  |  |  |  |  | 0.481 | 0.583 | 0.47 | 0.599 | 0.463
10 | NCI-H358 |  |  |  |  |  | 0.783 | 0.597 | 0.718 | 0.71 | 0.606 | 0.77 | 0.693 | 0.76 | 0.773 | 0.637 | 0.11 | 0.134 | 0.0909 | 0.101 | 0.098
11 | SK-MES-1 |  |  |  |  |  | 1.08 | 0.85 | 1.04 | 1.12 | 0.713 | 1.12 | 1.04 | 1.05 | 1.07 | 1.08 | 0.898 | 0.904 | 0.921 | 0.929 | 0.678
